Data reported in publication PMC2851645, “An Odorant Receptor from the Southern House Mosquito Culex pipiens quinquefasciatus Sensitive to Oviposition Attractants” (PLoS ONE, 2010).
Entries after “also recorded” stand apart in the source; their conditions may differ. Like-named read-outs stand apart in the source and are kept apart here.

Legend:
[1] = system: ORN-B in the blunt-tipped trichoid sensilla A2; design: method as in PMID 19858490; conditions: cited from earlier work; for excitatory response of ORN-B: compounds tested individually
AgamOR10 = system: AgamOR10; design: method as in PMID 20130575, PMID 20160092, PMID 18427108; conditions: cited from earlier work
CquiOR2 + CquiOR7 = CquiOR2 + CquiOR7 (Culex quinquefasciatus, UniProt D5LMR6); assay: Two-electrode voltage clamp of Xenopus oocytes expressing CquiOR2 + CquiOR7; type: cell-based; conditions: for nH (Hill coefficient): Hill fit of concentration-response data, 5–16 oocytes; for relative efficacies (maximal responses) compared with indole: in words; for Emax: read-out: Relative Efficacy; for current response in panel screen: each compound applied for 20 s at 10 µM
CquiOR2 + CquiOR7, sequence (Q309I4 entry or part of it): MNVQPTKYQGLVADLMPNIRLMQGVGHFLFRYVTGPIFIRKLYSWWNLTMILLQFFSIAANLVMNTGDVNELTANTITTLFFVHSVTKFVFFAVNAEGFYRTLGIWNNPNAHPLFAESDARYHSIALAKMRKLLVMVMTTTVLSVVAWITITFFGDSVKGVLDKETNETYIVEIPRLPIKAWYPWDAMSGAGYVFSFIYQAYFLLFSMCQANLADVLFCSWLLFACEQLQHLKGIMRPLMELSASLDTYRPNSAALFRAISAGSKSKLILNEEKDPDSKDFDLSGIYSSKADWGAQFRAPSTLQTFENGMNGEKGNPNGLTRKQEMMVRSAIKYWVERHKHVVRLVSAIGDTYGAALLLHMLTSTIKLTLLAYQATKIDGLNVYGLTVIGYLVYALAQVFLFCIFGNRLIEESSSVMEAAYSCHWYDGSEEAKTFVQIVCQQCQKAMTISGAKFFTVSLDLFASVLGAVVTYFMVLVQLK
CquiOR2 + CquiOR7, sequence (D5LMR6 entry or part of it): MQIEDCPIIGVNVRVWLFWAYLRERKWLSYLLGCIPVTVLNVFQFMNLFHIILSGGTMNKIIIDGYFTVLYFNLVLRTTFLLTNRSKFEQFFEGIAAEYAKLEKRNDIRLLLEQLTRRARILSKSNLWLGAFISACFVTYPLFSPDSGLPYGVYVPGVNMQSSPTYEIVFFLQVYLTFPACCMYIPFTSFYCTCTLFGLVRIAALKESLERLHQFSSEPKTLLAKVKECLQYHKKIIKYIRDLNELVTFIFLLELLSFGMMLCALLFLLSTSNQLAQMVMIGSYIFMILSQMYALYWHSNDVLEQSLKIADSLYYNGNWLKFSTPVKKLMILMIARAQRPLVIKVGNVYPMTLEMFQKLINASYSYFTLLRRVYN
Procedure: Oocytes were surgically removed from mature Xenopus laevis frogs (Nasco). The care and use of Xenopus laevis frogs in this study were approved by the University of Miami Animal Research Committee and meet the guidelines of the National Institutes of Health. Follicle cells were removed by treatment with Collagenase B (Boehringer Mannhem) for 2 h at room temperature. CquiOR2 and CquiOR7 were transferred into pGEMHE [27]. Capped cRNA encoding each OR subunit was generated using mMessage mMachine kits (Ambion). 25 ng of cRNA encoding each OR subunit was injected into Stage V-VI Xenopus oocytes. Oocytes were incubated at 18°C in Barth's saline (in mM: 88 NaCl, 1 KCl, 2.4 NaHCO3, 0.3 CaNO3, 0.41 CaCl2, 0.82 MgSO4, 15 HEPES, pH 7.6, and 100 µg/ml amikacin) for 2–5 days prior to electrophysiological recording.
Odorant-induced currents were recorded under two-electrode voltage clamp from oocytes expressing ORs, using an automated parallel electrophysiology system (OpusXpress 6000A; Molecular Devices). Oocytes were perfused with ND96 (in mM: 96 NaCl, 2 KCl, 1 CaCl2, 1 MgCl2, 5 HEPES, pH 7.5). […] Micropipettes were filled with 3 M KCl and had resistances of 0.2–2.0 MΩ. The holding potential was −70 mV. Current responses were filtered (4-pole, Bessel, low pass) at 20 Hz (-3 db), sampled at 100 Hz and were captured and stored using OpusXpress 1.1 software (Molecular Devices). Initial analysis of electrophysiological data was done using Clampfit 9.1 software (Molecular Devices). Curve fitting of concentration-response data was done using Prism 4 (Graphpad). Concentration-response data were fit to the equation: I = Imax/(1+(EC50/X)^n) where I represents the current response at a given concentration of odorant, X; Imax is the maximal response; EC50 is the concentration of odorant yielding a half maximal response; n is the apparent Hill coefficient.

AgamOR2 = system: AgamOR2; design: method as in PMID 20130575, PMID 20160092, PMID 14724626, PMID 18427108; conditions: cited from earlier work
gravid Culex mosquitoes = system: gravid Culex mosquitoes; design: method as in PMID 18725946, PMID 10083752, PMID 1583482, PMID 15274442; conditions: indoor bioassays and field tests; cited from earlier work
[2] = 20 s applications, Hill fit, mean ± SEM, 5–16 separate oocytes, read-out: EC50
[3] = maximum value from fit, as percentage of the maximum value for indole, mean ± SEM

SMILES | EC50 (CquiOR2 + CquiOR7; [2]) [µM] | nH (Hill coefficient) (CquiOR2 + CquiOR7; mean ± SEM) | relative efficacies (maximal responses) compared with indole (CquiOR2 + CquiOR7) | Emax (CquiOR2 + CquiOR7; [3]) [%] | further results
Cc1cccc(O)c1 [3-methylphenol] | – | – | – | – | response threshold compared with 2-methylphenol [1]: three orders of magnitude higher
Cc1ccc(O)cc1 [4-methylphenol] | – | – | – | – | response of AgamOR10 (AgamOR10): strongly respond; response threshold compared with 2-methylphenol [1]: three orders of magnitude higher
Cn1ccc2ccccc21 [1-Methylindole] | – | 1.3±0.5 | – | – | EC50 (CquiOR2 + CquiOR7): 20 ± 6 µM; Emax (CquiOR2 + CquiOR7): 84 ± 9%
c1ccc2[nH]ccc2c1 [Indole] | – | 0.8±0.2 | – | – | EC50 (CquiOR2 + CquiOR7): 0.28 ± 0.12 µM; selectivity for indole over the various methylindoles (CquiOR2 + CquiOR7; Xenopus oocyte system): 10- to 70 fold; current response in panel screen (CquiOR2 + CquiOR7): largest current responses; Emax (CquiOR2 + CquiOR7): 100%; response of AgamOR10 (AgamOR10): strongly respond; response of AgamOR2 (AgamOR2): strongly respond; excitatory response of ORN-B [1]: strongest dose-dependent responses; selectivity for indole over methylindoles ([1]; single sensillum recordings from A2): three orders of magnitude selectivity; attraction of gravid Culex mosquitoes (gravid Culex mosquitoes): attractants
Cc1ccccc1O [2-Methylphenol] | – | 1.0±0.2 | lower relative efficacies than indole | – | EC50 (CquiOR2 + CquiOR7): 7.3 ± 1.5 µM; current response in panel screen (CquiOR2 + CquiOR7): responded well; also recorded: best responses for phenolic compounds; Emax (CquiOR2 + CquiOR7): 70 ± 9%; response of AgamOR2 (AgamOR2): strongly respond; excitatory response of ORN-B [1]: eliciting the strongest response

Second part, led by results:

EC50 (CquiOR2 + CquiOR7; [2]) [µM] | nH (Hill coefficient) (CquiOR2 + CquiOR7; mean ± SEM) | relative efficacies (maximal responses) compared with indole (CquiOR2 + CquiOR7) | Emax (CquiOR2 + CquiOR7; [3]) [%] | SMILES | further results
18 ± 3 | 1.1±0.2 | lower relative efficacies than indole | 67 ± 4 | Cc1cccc2cc[nH]c12 [7-Methylindole] | –
7.5 ± 4.1 | 0.9±0.4 | – | 106 ± 16 | Cc1cc2ccccc2[nH]1 [2-Methylindole] | –
8.6 ± 2 | 1.1±0.2 | lower relative efficacies than indole | 59 ± 4 | Cc1ccc2[nH]ccc2c1 [5-Methylindole] | –
3 ± 0.6 | 0.9±0.2 | lower relative efficacies than indole | 69 ± 4 | Cc1ccc2cc[nH]c2c1 [6-Methylindole] | –
20 ± 6 | 0.9±0.2 | – | 92 ± 8 | Cc1c[nH]c2ccccc12 [3-Methylindole] | response of AgamOR10 (AgamOR10): strongly respond; response of AgamOR2 (AgamOR2): strongly respond; attraction of gravid Culex mosquitoes (gravid Culex mosquitoes): attractants
3.6 ± 0.8 | 1.0±0.2 | lower relative efficacies than indole | 60 ± 4 | Cc1cccc2[nH]ccc12 [4-Methylindole] | –
